Structures are written as SMILES.

In the first assay the target is T1, purified recombinant human Aggrecanase-1 (rAgg1) (Homo sapiens, UniProt O75173).
T1 sequence (O75173 213-837): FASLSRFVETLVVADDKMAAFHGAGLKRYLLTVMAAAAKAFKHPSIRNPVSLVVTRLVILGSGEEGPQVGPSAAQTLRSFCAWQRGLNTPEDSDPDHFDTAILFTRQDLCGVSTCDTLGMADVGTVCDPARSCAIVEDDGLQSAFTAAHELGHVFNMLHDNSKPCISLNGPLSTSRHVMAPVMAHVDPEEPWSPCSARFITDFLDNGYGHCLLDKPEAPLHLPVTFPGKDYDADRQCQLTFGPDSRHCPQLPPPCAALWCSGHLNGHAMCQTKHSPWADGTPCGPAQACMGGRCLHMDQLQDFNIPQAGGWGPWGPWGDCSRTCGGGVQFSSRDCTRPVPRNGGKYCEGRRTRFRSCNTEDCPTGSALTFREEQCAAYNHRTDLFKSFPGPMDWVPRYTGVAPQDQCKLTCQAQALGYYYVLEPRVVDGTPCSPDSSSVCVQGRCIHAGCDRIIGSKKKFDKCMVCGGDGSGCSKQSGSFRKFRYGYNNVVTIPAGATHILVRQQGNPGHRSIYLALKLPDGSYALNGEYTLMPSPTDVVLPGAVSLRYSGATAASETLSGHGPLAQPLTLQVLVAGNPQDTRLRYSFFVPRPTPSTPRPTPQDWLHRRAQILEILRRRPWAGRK
The assay is described as follows: In vitro fluorescence screen for Aggrecanase-1 inhibitors. It counts as biochemical. Particulars: Table 1; @ 7,500 (nM).
As for `O=C(O)CC[C@H](NC(=O)c1ccc(-c2ccc(OCC3CCCCC3)cc2)cc1)C(=O)NCc1ccccc1` [Example 15D, N^1-benzyl-N^2-{[4′-(cyclohexylmethoxy)-1,1′-biphenyl-4-yl]carbonyl}-L-α-glutamine], the “Agg1 % @ concentration” value is 86% @.

The same assay, now with this note: Table 1; enzyme not given, column follows Agg1 IC50; read-out: Ki.
The Ki is the equilibrium dissociation constant of an inhibitor or competing ligand from its target. For `CCCCCCNC(=O)[C@H](CCC(=O)O)NC(=O)c1ccc2c(c1)Cc1ccccc1-2` [Example 8OOOO, N^2-(9H-fluoren-2-ylcarbonyl)-N^1-hexyl-L-α-glutamine], the Ki was determined as 60 nM.

The same assay, now with this note: Table 1; read-out: Agg1 IC50.
The term IC50 denotes the concentration needed to halve the response being measured. As to `O=C(O)CC[C@H](NC(=O)c1ccc(-c2ccccc2)cc1)C(=O)Nc1ccccc1Cc1ccccc1` [Example 8QQQQQQ, N^1-(2-benzylphenyl)-N^2-(1,1′-biphenyl-4-ylcarbonyl)-L-α-glutamine], the IC50 is 690 nM. With `O=C(O)CCC(NC(=O)c1ccc(-c2ccccc2)cc1)C(=O)O` (stereo in doubt) [Example 2, N-(1,1′-biphenyl-4-ylcarbonyl)-D-glutamic acid], the IC50 is 111 nM. Still for that read-out and setting: under `O=C(O)CC[C@H](NC(=O)c1ccc(-c2ccccc2)cc1)C(=O)NCCc1ccc(Cl)cc1` [Example 8UU, N^2-(biphenyl-4-ylcarbonyl)-N^1-[2-(4-chlorophenyl)ethyl]-L-α-glutamine] stands 200 nM. `COc1cccc(CNC(=O)[C@H](CCC(=O)O)NC(=O)c2ccc(-c3ccccc3)nc2)c1` [Example 22B, N^1-(3-methoxybenzyl)-N^2-[(6-phenylpyridin-3-yl)carbonyl]-L-α-glutamine]: the IC50 was 200 nM.

Regarding `CC(C)(C)CC(C)(C)NC(=O)[C@H](CCC(=O)O)NC(=O)c1ccc(-c2ccccc2)cc1` [Example 6C, N^2-(biphenyl-4-ylcarbonyl)-N^1-(1,1,3,3-tetramethylbutyl)-L-α-glutamine], the IC50 stood at 150 nM.

Regarding `CCCOc1ccc(-c2ccc(C(=O)N[C@@H](CCC(=O)O)C(=O)NCc3ccccc3)cc2)cc1` [Example 15A, N^1-benzyl-N^2-[(4′-propoxy-1,1′-biphenyl-4-yl)carbonyl]-L-α-glutamine], the IC50 is > 22000 nM. `COc1cc(CNC(=O)[C@H](CCC(=O)O)NC(=O)c2ccc(Oc3ccccc3)cc2)cc(OC)c1OC` [Example 8NNNN, N^2-(4-phenoxybenzoyl)-N^1-(3,4,5-trimethoxybenzyl)-L-α-glutamine]: the IC50 stood at 3400 nM.

`CC(C)(CO)NC(=O)[C@H](CCC(=O)O)NC(=O)c1ccc(-c2ccccc2)cc1` [Example 6B, N^2-(biphenyl-4-ylcarbonyl)-N^1-(2-hydroxy-1,1-dimethylethyl)-L-α-glutamine]: the IC50 stood at 300 nM. Same read-out and setting: under `COCCNC(=O)[C@H](CCC(=O)O)NC(=O)c1ccc(-c2ccccc2)cc1` [Example 8J, N^2-(1,1′-biphenyl-4-ylcarbonyl)-N^1-(2-methoxyethyl)-L-α-glutamine] stands 360 nM; under `O=C(O)CC[C@H](NC(=O)c1ccc2c(c1)C(=O)c1ccccc1-2)C(=O)NCCCc1ccccc1` [Example 8SSSSSS, N^2-[(9-oxo-9H-fluoren-2-yl)carbonyl]-N^1-(3-phenylpropyl)-L-α-glutamine], 146 nM; under `CC(=O)Nc1ccc(-c2ccc(C(=O)N[C@@H](CCC(=O)O)C(=O)NCc3ccccc3)cc2)cc1` [Example 23, N^2-{[4′-(acetylamino)-1,1′-biphenyl-4-yl]carbonyl}-N^1-benzyl-L-α-glutamine], > 6000 nM. As to `C=Cc1ccc(-c2ccc(C(=O)N[C@@H](CCC(=O)O)C(=O)NCc3ccccc3)cc2)cc1` [Example 13G, N^1-benzyl-N^2-[(4′-vinyl-1,1′-biphenyl-4-yl)carbonyl]-L-α-glutamine], the IC50 was ~2500 nM. For the compound `CC(C)NC(=O)[C@H](CCC(=O)O)NC(=O)c1ccc(-c2ccccc2)cc1` [Example 8PPP, N^2-(biphenyl-4-ylcarbonyl)-N^1-isopropyl-L-α-glutamine], the IC50 was determined as 130 nM. For `CCOc1ccccc1-c1ccc(CCNC(=O)[C@H](CCC(=O)O)NC(=O)c2ccc(-c3ccccc3)cc2)cc1` [Example 10E, N^2-(biphenyl-4-ylcarbonyl)-N^1-[2-(2′-ethoxybiphenyl-4-yl)ethyl]-L-α-glutamine], the IC50 was 370 nM. As to `O=C(O)CC[C@H](NC(=O)c1ccc(-c2ccc(NC(=O)c3cc4ccccc4o3)cc2)cc1)C(=O)O` [Example 31, N-({4′-[(1-benzofuran-2-ylcarbonyl)amino]-1,1′-biphenyl-4-yl}carbonyl)-L-α-glutamic acid], the IC50 is 1000 nM. For `CCCCCCNC(=O)[C@H](CCC(=O)O)NC(=O)c1ccc2c(c1)Cc1ccccc1-2` [Example 8OOOO, N^2-(9H-fluoren-2-ylcarbonyl)-N^1-hexyl-L-α-glutamine], the IC50 is 52 nM. Regarding `CC(C)(Cc1ccccc1)NC(=O)[C@H](CCC(=O)O)NC(=O)c1ccc2c(c1)Cc1ccccc1-2` [Example 6D, N^1-(1,1-dimethyl-2-phenylethyl)-N^2-(9H-fluoren-2-ylcarbonyl)-L-α-glutamine], the IC50 was 45 nM. Same read-out and setting: the result for `O=C(O)CC[C@H](NC(=O)c1ccc(-c2ccccc2)cc1)C(=O)NCc1cccc(-c2ccc(C(F)(F)F)cc2)c1` [Example 10O, N^2-(biphenyl-4-ylcarbonyl)-N^1-{[4′-(trifluoromethyl)biphenyl-3-yl]methyl}-L-α-glutamine] reads 470 nM; that for `O=Cc1ccc(-c2ccc(CCNC(=O)[C@H](CCC(=O)O)NC(=O)c3ccc(-c4ccccc4)cc3)cc2)cc1` [Example 9, N^2-(biphenyl-4-ylcarbonyl)-N^1-[2-(4′-formylbiphenyl-4-yl)ethyl]-L-α-glutamine], 200 nM. As to `O=C(O)CC[C@H](NC(=O)c1ccc(Oc2ccccc2)cc1)C(=O)NCCCc1ccccc1` [Example 8TTTTTT, N^2-(4-phenoxybenzoyl)-N^1-(3-phenylpropyl)-L-α-glutamine], the IC50 came to 17300 nM. Regarding `C#Cc1ccc(-c2cccc(CNC(=O)[C@H](CCC(=O)O)NC(=O)c3ccc(-c4ccccc4)cc3)c2)cc1` [Example 10P, N^2-(biphenyl-4-ylcarbonyl)-N^1-[(4′-ethynylbiphenyl-3-yl)methyl]-L-α-glutamine], the IC50 stood at 700 nM. As for `COc1cccc(COc2ccc(-c3ccc(C(=O)N[C@@H](CCC(=O)O)C(=O)NCc4ccccc4)cc3)cc2)c1` [Example 15F, N^1-benzyl-N^2-({4′-[(3-methoxybenzyl)oxy]-1,1′-biphenyl-4-yl}carbonyl)-L-α-glutamine], the IC50 amounted to 600 nM. As for `COc1cccc(CNC(=O)[C@H](CCC(=O)O)NC(=O)c2ccc(-c3ccccc3C)c(C)c2)c1` [Example 22C, N^2-[(2,2′-dimethyl-1,1′-biphenyl-4-yl)carbonyl]-N^1-(3-methoxybenzyl)-L-α-glutamine], the IC50 is > 50000 nM. For the compound `O=C(O)CC[C@H](NC(=O)c1ccc(-c2ccccc2)cc1Cl)C(=O)NCc1ccccc1` [Example 17YY, N^1-benzyl-N^2-[(3-chloro-1,1′-biphenyl-4-yl)carbonyl]-L-α-glutamine], the IC50 is 2000 nM. Turning to `O=C(O)CC[C@H](NC(=O)c1ccc(C(=O)c2ccccc2)cc1)C(=O)NCc1ccccc1` [Example 8SSSS, N^2-(4-benzoylbenzoyl)-N^1-benzyl-L-α-glutamine], the IC50 was > 200000 nM.

The assay is the same for the next values; noted with them: Table 2; read-out: Agg1 IC50.
For the compound `Cc1cccc(CNC(=O)[C@H](CCC(=O)O)NC(=O)c2ccc(Br)cc2)c1` [Example 18G, N^2-(4-bromobenzoyl)-N-(3-methylbenzyl)-L-α-glutamine], the IC50 is ~8300 nM. For the compound `Cc1cccc(CNC(=O)[C@H](CCC(=O)O)NC(=O)c2ccc3c(c2)Cc2ccccc2-3)c1` [Example 8CCCCC, N^2-(9H-fluoren-2-ylcarbonyl)-N^1-(3-methylbenzyl)-L-α-glutamine], the IC50 was found to be 107 nM.

The record behind these values is patent publication US7998965B2, “Glutamate aggrecanase inhibitors” (Wyeth LLC, priority 2005, dated 2011).
